Literature values, collected in patent US20060239954A1, “Antimicrobial spray for use on pets” (priority 2005, published 2006).

What was measured:
Conditions in all cases: 0.1% aqueous solution
[1] = tested on: Staphylococcus aureus
[2] = tested on: Escherichia coli
[3] = tested on: Pseudomonas aeruginosa

N=C(NCCCCCCNC(=N)NC(=N)Nc1ccc(Cl)cc1)NC(=N)Nc1ccc(Cl)cc1.O=C(O)[C@H](O)[C@@H](O)[C@H](O)[C@H](O)CO.O=C(O)[C@H](O)[C@@H](O)[C@H](O)[C@H](O)CO [Chlorhexidine gluconate, chlorhexidine gluconate]
bactericidal: bactericidal against Staphylococcus aureus [1] | bactericidal against Escherichia coli [2] | bactericidal against Pseudomonas aeruginosa [3]
